In publication PMC4589371, “Molecular Binding Mechanism of TtgR Repressor to Antibiotics and Antimicrobials” (PLoS ONE, 2015):

Experiments:
TtgR (TtgR^WT) [1] = biological target: T1, TtgR (TtgR^WT) (Pseudomonas putida, UniProt Q9AIU0); assay: isothermal titration calorimetry, one set of sites; format: binding
T1 construct: homodimer

TtgR (TtgR^WT) [2] = biological target: TtgR (TtgR^WT) (Pseudomonas putida, UniProt Q9AIU0, N110A); assay: biochemical
Source text: (§1) isothermal titration calorimetry, one set of sites on TtgR (TtgR^WT)

TtgR (TtgR^WT) [3] = biological target: TtgR (TtgR^WT) (Pseudomonas putida, UniProt Q9AIU0, H114A); assay: biochemical
Source text: as §1

TtgR (TtgR^WT) [4] = biological target: TtgR (TtgR^WT) (Pseudomonas putida, UniProt Q9AIU0, E78A); assay: biochemical
Source text: as §1

[5] = system: TtgR H114A (Pseudomonas putida DOT-T1E); assay: EMSA; conditions: 5 uM naringenin; EMSA: 10 mM Tris-HCl pH 7.0, 250 mM NaCl, 10 mM Mg acetate, 10 mM KCl, 5% glycerol, 0.1 mM EDTA, 5 mM DTT, 20 ug/ml poly(dI-dC), 200 ug/ml BSA; 10 min at 30 C …
[6] = system: TtgR N110A (Pseudomonas putida DOT-T1E); assay: EMSA; conditions: 5 uM phloretin; EMSA: 10 mM Tris-HCl pH 7.0, 250 mM NaCl, 10 mM Mg acetate, 10 mM KCl, 5% glycerol, 0.1 mM EDTA, 5 mM DTT, 20 ug/ml poly(dI-dC), 200 ug/ml BSA; 10 min at 30 C …
[7] = system: TtgR E78A (Pseudomonas putida DOT-T1E); assay: EMSA; conditions: 5 uM naringenin; EMSA: 10 mM Tris-HCl pH 7.0, 250 mM NaCl, 10 mM Mg acetate, 10 mM KCl, 5% glycerol, 0.1 mM EDTA, 5 mM DTT, 20 ug/ml poly(dI-dC), 200 ug/ml BSA; 10 min at 30 C …

Row | Compound | Kd (TtgR (TtgR^WT) [1]) | Kd (TtgR (TtgR^WT) [2]) | Kd (TtgR (TtgR^WT) [3]) | Kd (TtgR (TtgR^WT) [4]) | binding signal (% DNA released) [5] | binding signal (% DNA dissociated) [6] | binding signal (% DNA released) [7]
1 | O=C(N[C@H](CO)[C@H](O)c1ccc([N+](=O)[O-])cc1)C(Cl)Cl [chloramphenicol] | 5.6 ± 0.4 µM | 15.6 ± 2 µM | 8.5 ± 0.5 µM | 18.5 ± 1 µM |  |  | 
2 | ttgABC-ttgR intergenic region (operator), 189 bp |  |  |  |  | 30 | 66 | 30
3 | O=C(CCc1ccc(O)cc1)c1c(O)cc(O)cc1O [phloretin] | 1.5 ± 0.2 µM | 1 ± 0.1 µM | 1.3 ± 0.1 µM | 0.7 ± 0.1 µM |  |  | 
